# Reference: patent US7772241B2, “Variolin derivatives and their use as antitumor agents” (Pharma Mar S.A., priority 2001, dated 2010)
# Like-named read-outs stand apart in the source and are kept apart here.
# Assays:
# [1] = Inhibition of cells growth by colorimetric (SRB) assay, HMEC1; conditions: human, HMEC1 cells, LC50 H-MEC-1, SRB assay, 48 hours exposure
# HMEC1 = assay: as above
# HT-29 = assay: Inhibition of cells growth by colorimetric (SRB) assay, HT-29
# How it was run: (§1)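 Read-out is sulforhodamine B protein stain (OD 490 nm) after cold TCA fixation, following 48 h continuous exposure to samples spanning 10 to 10^−8 μg/ml.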
# K-562 = assay: Inhibition of cells growth by colorimetric (SRB) assay, K-562
# How it was run: as §1
# DU-145 = assay: Inhibition of cells growth by colorimetric (SRB) assay, DU-145
# How it was run: as §1
# A-549 = assay: Inhibition of cells growth by colorimetric (SRB) assay, A-549
# How it was run: as §1
# IGROV-1 = assay: Inhibition of cells growth by colorimetric (SRB) assay, IGROV-1
# How it was run: as §1
# LNCaP = assay: Inhibition of cells growth by colorimetric (SRB) assay, LNCaP
# How it was run: as §1
# HeLa = assay: Inhibition of cells growth by colorimetric (SRB) assay, HeLa
# How it was run: as §1
# SK-BR-3 = assay: Inhibition of cells growth by colorimetric (SRB) assay, SK-BR-3
# How it was run: as §1
# IGROV-ET = assay: Inhibition of cells growth by colorimetric (SRB) assay, IGROV-ET
# How it was run: as §1
# SK-MEL-28 = assay: Inhibition of cells growth by colorimetric (SRB) assay, SK-MEL-28
# How it was run: as §1
# HeLa-APL = assay: Inhibition of cells growth by colorimetric (SRB) assay, HeLa-APL
# How it was run: as §1
# LoVo = assay: Inhibition of cells growth by colorimetric (SRB) assay, LoVo
# How it was run: as §1
# LoVo-Dox = assay: Inhibition of cells growth by colorimetric (SRB) assay, LoVo-Dox
# How it was run: as §1
# PANC-1 = assay: Inhibition of cells growth by colorimetric (SRB) assay, PANC-1
# How it was run: as §1
smiles,measurement,setting,value
CSc1nccc(-c2c3c(O)ccnc3n3c(N)nccc23)n1 [Compound 95],CC50 at 48 h,[1],≥ 30.8 µM
same,GI50,"HMEC1; Homo sapiens, HMEC-1, 48 h, read-out: GI50 H-MEC-1, SRB assay, 48 hours exposure",≥ 30.8 µM
same,TGI H-MEC-1,"HMEC1; SRB assay, 48 hours exposure, in M (unit assumed)",3.08E−05
same,GI50,"HT-29; Homo sapiens, HT-29, 48 h, read-out: GI50 HT-29, SRB assay, 48 hours exposure",≥ 30.8 µM
same,CC50,"HT-29; Homo sapiens, HT-29, 48 h, read-out: LC50 HT-29, SRB assay, 48 hours exposure",≥ 30.8 µM
same,HT-29 TGI,"HT-29; SRB assay, 48 hours exposure",3.08E−05
same,TGI HT-29,"HT-29; SRB assay, 48 hours exposure",3.08E−05
same,GI50,"HT-29; read-out: HT-29 GI50, SRB assay, 48 hours exposure",≥ 30.8 µM
same,CC50,"HT-29; read-out: HT-29 LC50, SRB assay, 48 hours exposure",≥ 30.8 µM
same,K-562 TGI,"K-562; SRB assay, 48 hours exposure",3.08E−05
same,GI50,"K-562; read-out: K-562 GI50, SRB assay, 48 hours exposure",≥ 30.8 µM
same,CC50,"K-562; read-out: K-562 LC50, SRB assay, 48 hours exposure",≥ 30.8 µM
same,DU-145 TGI,"DU-145; SRB assay, 48 hours exposure",3.08E−05
same,GI50,"DU-145; read-out: DU-145 GI50, SRB assay, 48 hours exposure",10.2 µM
same,CC50,"DU-145; read-out: DU-145 LC50, SRB assay, 48 hours exposure",≥ 30.8 µM
same,GI50,"A-549; Homo sapiens, A549, 48 h, read-out: GI50 A-549, SRB assay, 48 hours exposure",≥ 30.8 µM
same,CC50,"A-549; Homo sapiens, A549, 48 h, read-out: LC50 A-549, SRB assay, 48 hours exposure",≥ 30.8 µM
same,A-549 TGI,"A-549; SRB assay, 48 hours exposure",3.08E−05
same,TGI A-549,"A-549; SRB assay, 48 hours exposure",3.08E−05
same,GI50,"A-549; read-out: A-549 GI50, SRB assay, 48 hours exposure",8.63 µM
same,CC50,"A-549; read-out: A-549 LC50, SRB assay, 48 hours exposure",≥ 30.8 µM
same,IGROV TGI,"IGROV-1; SRB assay, 48 hours exposure",3.08E−05
same,GI50,"IGROV-1; read-out: IGROV GI50, SRB assay, 48 hours exposure",≥ 30.8 µM
same,CC50,"IGROV-1; read-out: IGROV LC50, SRB assay, 48 hours exposure",≥ 30.8 µM
same,LN-caP TGI,"LNCaP; SRB assay, 48 hours exposure",3.08E−05
same,GI50,"LNCaP; read-out: LN-caP GI50, SRB assay, 48 hours exposure",4.1 µM
same,CC50,"LNCaP; read-out: LN-caP LC50, SRB assay, 48 hours exposure",≥ 30.8 µM
same,HELA TGI,"HeLa; SRB assay, 48 hours exposure",2.57E−08
same,GI50,"HeLa; read-out: HELA GI50, SRB assay, 48 hours exposure",0.00916 µM
same,SK-BR-3 TGI,"SK-BR-3; SRB assay, 48 hours exposure",3.08E−05
same,GI50,"SK-BR-3; read-out: SK-BR-3 GI50, SRB assay, 48 hours exposure",1.52 µM
same,CC50,"SK-BR-3; read-out: SK-BR-3 LC50, SRB assay, 48 hours exposure",≥ 30.8 µM
same,IGROV-ET TGI,"IGROV-ET; SRB assay, 48 hours exposure",3.08E−05
same,GI50,"IGROV-ET; read-out: IGROV-ET GI50, SRB assay, 48 hours exposure",3.95 µM
same,CC50,"IGROV-ET; read-out: IGROV-ET LC50, SRB assay, 48 hours exposure",≥ 30.8 µM
same,MEL-28 TGI,"SK-MEL-28; SRB assay, 48 hours exposure",3.08E−05
same,GI50,"SK-MEL-28; read-out: MEL-28 GI50, SRB assay, 48 hours exposure",≥ 30.8 µM
same,CC50,"SK-MEL-28; read-out: MEL-28 LC50, SRB assay, 48 hours exposure",≥ 30.8 µM
same,HELA-APL TGI,"HeLa-APL; SRB assay, 48 hours exposure",1.31E−08
same,GI50,"HeLa-APL; read-out: HELA-APL GI50, SRB assay, 48 hours exposure",0.00546 µM
same,CC50,"HeLa-APL; read-out: HELA-APL LC50, SRB assay, 48 hours exposure",0.0382 µM
same,LOVO TGI,"LoVo; SRB assay, 48 hours exposure",3.08E−05
same,GI50,"LoVo; read-out: LOVO GI50, SRB assay, 48 hours exposure",11.3 µM
same,CC50,"LoVo; read-out: LOVO LC50, SRB assay, 48 hours exposure",≥ 30.8 µM
same,LOVO-DOX TGI,"LoVo-Dox; SRB assay, 48 hours exposure",3.08E−05
same,GI50,"LoVo-Dox; read-out: LOVO-DOX GI50, SRB assay, 48 hours exposure",≥ 30.8 µM
same,CC50,"LoVo-Dox; read-out: LOVO-DOX LC50, SRB assay, 48 hours exposure",≥ 30.8 µM
same,PANC-1 TGI,"PANC-1; SRB assay, 48 hours exposure",3.08E−05
same,GI50,"PANC-1; read-out: PANC-1 GI50, SRB assay, 48 hours exposure",24.2 µM
same,CC50,"PANC-1; read-out: PANC-1 LC50, SRB assay, 48 hours exposure",≥ 30.8 µM
"Nc1nccc(-c2c3cccnc3n3c(N)nccc23)n1 [Deoxyvariolin 4, deoxyvariolin B, reference compound]",GI50,"HT-29; Homo sapiens, HT-29, 48 h, read-out: HT-29 GI50, SRB assay, 48 hours exposure",0.117 µM
same,CC50,"HT-29; Homo sapiens, HT-29, 48 h, read-out: HT-29 LC50, SRB assay, 48 hours exposure",11.3 µM
same,HT-29 TGI,"HT-29; SRB assay, 48 hours exposure",4.98E−07
same,GI50,"K-562; Homo sapiens, K562, 48 h, read-out: K-562 GI50, SRB assay, 48 hours exposure",0.727 µM
same,CC50,"K-562; Homo sapiens, K562, 48 h, read-out: K-562 LC50, SRB assay, 48 hours exposure",24.6 µM
same,K-562 TGI,"K-562; SRB assay, 48 hours exposure",2.20E−06
same,GI50,"DU-145; Homo sapiens, DU-145, 48 h, read-out: DU-145 GI50, SRB assay, 48 hours exposure",0.0952 µM
same,CC50,"DU-145; Homo sapiens, DU-145, 48 h, read-out: DU-145 LC50, SRB assay, 48 hours exposure",5.3 µM
same,DU-145 TGI,"DU-145; SRB assay, 48 hours exposure",2.46E−07
same,GI50,"A-549; Homo sapiens, A549, 48 h, read-out: A-549 GI50, SRB assay, 48 hours exposure",0.0638 µM
same,CC50,"A-549; Homo sapiens, A549, 48 h, read-out: A-549 LC50, SRB assay, 48 hours exposure",12.2 µM
same,A-549 TGI,"A-549; SRB assay, 48 hours exposure",2.62E−07
same,GI50,"IGROV-1; Homo sapiens, IGROV-1, 48 h, read-out: IGROV GI50, SRB assay, 48 hours exposure",0.0808 µM
same,CC50,"IGROV-1; Homo sapiens, IGROV-1, 48 h, read-out: IGROV LC50, SRB assay, 48 hours exposure",1.32 µM
same,IGROV TGI,"IGROV-1; SRB assay, 48 hours exposure",8.10E−08
same,GI50,"LNCaP; Homo sapiens, LNCaP, 48 h, read-out: LN-caP GI50, SRB assay, 48 hours exposure",0.0642 µM
same,CC50,"LNCaP; Homo sapiens, LNCaP, 48 h, read-out: LN-caP LC50, SRB assay, 48 hours exposure",0.272 µM
same,LN-caP TGI,"LNCaP; SRB assay, 48 hours exposure",1.32E−07
same,GI50,"HeLa; Homo sapiens, HeLa, 48 h, read-out: HELA GI50, SRB assay, 48 hours exposure",0.0811 µM
same,HELA TGI,"HeLa; SRB assay, 48 hours exposure",1.60E−07
same,GI50,"SK-BR-3; Homo sapiens, SK-BR-3, 48 h, read-out: SK-BR-3 GI50, SRB assay, 48 hours exposure",0.0736 µM
same,CC50,"SK-BR-3; Homo sapiens, SK-BR-3, 48 h, read-out: SK-BR-3 LC50, SRB assay, 48 hours exposure",0.345 µM
same,SK-BR-3 TGI,"SK-BR-3; SRB assay, 48 hours exposure",1.59E−07
same,GI50,"IGROV-ET; Homo sapiens, 48 h, read-out: IGROV-ET GI50, SRB assay, 48 hours exposure",0.129 µM
same,CC50,"IGROV-ET; Homo sapiens, 48 h, read-out: IGROV-ET LC50, SRB assay, 48 hours exposure",22.9 µM
same,IGROV-ET TGI,"IGROV-ET; SRB assay, 48 hours exposure",3.42E−07
same,GI50,"SK-MEL-28; Homo sapiens, SK-MEL-28, 48 h, read-out: MEL-28 GI50, SRB assay, 48 hours exposure",0.0692 µM
same,CC50,"SK-MEL-28; Homo sapiens, SK-MEL-28, 48 h, read-out: MEL-28 LC50, SRB assay, 48 hours exposure",0.321 µM
same,MEL-28 TGI,"SK-MEL-28; SRB assay, 48 hours exposure",1.49E−07
same,GI50,"HeLa-APL; Homo sapiens, 48 h, read-out: HELA-APL GI50, SRB assay, 48 hours exposure",0.066 µM
same,CC50,"HeLa-APL; Homo sapiens, 48 h, read-out: HELA-APL LC50, SRB assay, 48 hours exposure",0.318 µM
same,HELA-APL TGI,"HeLa-APL; SRB assay, 48 hours exposure",1.45E−07
same,GI50,"LoVo; Homo sapiens, LoVo, 48 h, read-out: LOVO GI50, SRB assay, 48 hours exposure",0.102 µM
same,CC50,"LoVo; Homo sapiens, LoVo, 48 h, read-out: LOVO LC50, SRB assay, 48 hours exposure",22.1 µM
same,LOVO TGI,"LoVo; SRB assay, 48 hours exposure",2.54E−07
same,GI50,"LoVo-Dox; Homo sapiens, 48 h, read-out: LOVO-DOX GI50, SRB assay, 48 hours exposure",0.101 µM
same,CC50,"LoVo-Dox; Homo sapiens, 48 h, read-out: LOVO-DOX LC50, SRB assay, 48 hours exposure",36.1 µM
same,LOVO-DOX TGI,"LoVo-Dox; SRB assay, 48 hours exposure",2.96E−07
same,GI50,"PANC-1; Homo sapiens, PANC-1, 48 h, read-out: PANC-1 GI50, SRB assay, 48 hours exposure",0.162 µM
same,CC50,"PANC-1; Homo sapiens, PANC-1, 48 h, read-out: PANC-1 LC50, SRB assay, 48 hours exposure",15.4 µM
same,PANC-1 TGI,"PANC-1; SRB assay, 48 hours exposure",1.76E−06
